# Source: patent US20250064809A1, “Inhibitors of Mutant RET Kinases for use in Treating Cancer” (Stemline Therapeutics, Inc., priority 2021, published 2025)
# How the values were obtained:
# [1] = tested on: Ba/F3 cells expressing KIF5B-RET with a G810 RET mutant domain; test: In vitro cell viability assay, mutant RET kinase cell lines compared to wild type; type: cell-based, mouse; conditions: Ba/F3 KIF5B-RET G810R, G810C, G810S versus wild type
# Ba/F3 KIF5B-RET-G810S = test: In vitro cell viability assay (CellTiter-Glo); type: cell-based; conditions: Mus musculus, BaF3, 72 h, 3 days
# Ba/F3 KIF5B-RET-G810C = test: In vitro cell viability assay (CellTiter-Glo); type: cell-based; conditions: Mus musculus, BaF3, 72 h, 3 days
# Ba/F3 KIF5B-RET = test: In vitro cell viability assay (CellTiter-Glo); type: cell-based; conditions: Mus musculus, BaF3, 72 h; Ba/F3 KIF5B-RET (wild type RET), 3 days
# Ba/F3 KIF5B-RET-G810R = test: In vitro cell viability assay (CellTiter-Glo); type: cell-based; conditions: Mus musculus, BaF3, 72 h, 3 days
Structure (SMILES),increase in IC50 values against mutant RET kinase cell lines as compared to wild type RET kinase cell lines [1],IC50 (Ba/F3 KIF5B-RET-G810S),IC50 (Ba/F3 KIF5B-RET-G810C),IC50 (Ba/F3 KIF5B-RET),IC50 (Ba/F3 KIF5B-RET-G810R)
"CO[C@]1(C(=O)N[C@@H](C)c2ccc(-n3cc(F)cn3)nc2)CC[C@H](c2nc(C)cc(Nc3cc(C)[nH]n3)n2)CC1 [Pralsetinib, pralsetinib]",3-44 fold,0.0905 µM,0.551 µM,0.0296 µM,1.3 µM
"COc1ccc(CN2C3CC2CN(c2ccc(-c4cc(OCC(C)(C)O)cn5ncc(C#N)c45)cn2)C3)cn1 [Selpercatinib, selpercatinib]",8-44 fold,0.204 µM,1.08 µM,0.0244 µM,0.986 µM
